The values that follow come from US20050266012A1 (priority 2004, published 2005).

Test [1] deals with AT-2-HIV-pulsed DCs. Briefly: Ex vivo cytotoxic assay, HIV-specific cytolysis by splenocytes. The settings on record: AT-2-HIV-immunized BALB/c mice; 5 mg/kg daily intramuscular for 7 days; P<0.01. Type of test: in vivo. As for the experimental part: (§1) Aldrithiol-2 (AT-2)-inactivated HIV (10^9/50 μl) (LU and ANDRIEU, J. Virol., vol. 75, p: 8949-56, 2001) or human chromogranin A (hCgA, a protein associated with neuro-endocrine tumours (DEGORCE et al., Br. J. Cancer., vol. 79, p: 65-71, 1999); 10 μg/50 μl) plus incomplete Freund's adjuvant (IFA) (50 μl) were injected subcutaneously into 4- to 6-week-old male BALB/c mice (Institute of Laboratory Animal Science, Beijing, China). Mice immunized with AT-2-inactivated HIV (n=12) or hCgA (n=12) were randomly divided into two subgroups. One subgroup (n=6) received daily intramuscular injection of 5-azacytidine (Sigma, St Louis, Mo.) at a dose of 5 mg/kg for 7 days and the other subgroup (n=6) received 0.9% sodium chloride as control. Animals were killed at day 7 for ex vivo analysis. […]
(§2) Splenocytes were taken from 7-day-immunized mice and plated into Micro Tubes-Bulk (Bio-Rad, Hercules, Calif.) in the presence of CFSE (Molecular Probes, PoortGebouw, The Netherlands)-labelled AT-2-HIV- or hCgA-pulsed dendritic cells (DCs) at different E:T ratios for 4 h at 37° C. […] Target cytolysis was analyzed on a FACSCalibur (BD Immunocytometry System, San Jose, Calif.). Virus- or tumour-specific cytolytic activity was determined by calculating the percentage of CFSE/PI-staining DCs after subtraction of the non-specific CFSE/PI-staining of non-pulsed DCs. […]

Test [2] deals with AT-2-HIV-pulsed DCs. Briefly: In vivo cytotoxic assay, HIV-specific cytolysis. The settings on record: AT-2-HIV-immunized BALB/c mice; 5 mg/kg daily intramuscular for 7 days; P<0.01. As to the method: (§3) Aldrithiol-2 (AT-2)-inactivated HIV (10^9/50 μl) (LU and ANDRIEU, J. Virol., vol. 75, p: 8949-56, 2001) or human chromogranin A (hCgA, a protein associated with neuro-endocrine tumours (DEGORCE et al., Br. J. Cancer., vol. 79, p: 65-71, 1999); 10 μg/50 μl) plus incomplete Freund's adjuvant (IFA) (50 μl) were injected subcutaneously into 4- to 6-week-old male BALB/c mice (Institute of Laboratory Animal Science, Beijing, China). Mice immunized with AT-2-inactivated HIV (n=12) or hCgA (n=12) were randomly divided into two subgroups. One subgroup (n=6) received daily intramuscular injection of 5-azacytidine (Sigma, St Louis, Mo.) at a dose of 5 mg/kg for 7 days and the other subgroup (n=6) received 0.9% sodium chloride as control. Animals were killed at day 7 for ex vivo analysis. In addition, non-immunized mice (n=6) injected with IFA alone were also killed on the same day to establish a background control.
(§4) This assay was performed as described previously (AICHELE et al., Immunity, vol. 6, p: 519-29, 1997). Briefly, target DCs were prepared from BALB/c bone marrow cell suspensions (LUTZ et al., above mentioned, 1999). […] In vivo HIV- or hCgA-specific cytolysis was assessed by calculating the ratio of non-pulsed DCs/pulsed DCs. […]

Test [3] concerns hCgA-pulsed DCs. Put plainly: Ex vivo cytotoxic assay, hCgA-specific cytolysis by splenocytes. Conditions: hCgA-immunized BALB/c mice; 5 mg/kg daily intramuscular for 7 days; P<0.01. Type of test: in vivo. As for the experimental part:
as §1, §2

For test [4], the system named is hCgA-pulsed DCs. Briefly: In vivo cytotoxic assay, hCgA-specific cytolysis. The settings on record: hCgA-immunized BALB/c mice; 5 mg/kg daily intramuscular for 7 days; P<0.01. As to the method:
as §3, §4

The test system of test [5] is relapsed or refractory acute myelogenous leukaemia (AML) and myolodysplastic syndrome (MDS). Conditions: cited from earlier work.
In the next test the test system is solid tumors. Conditions: phase II trials, variety of doses and schedules; cited from earlier work.
The subject of a further test is latent EBV promoters. Conditions: patients with EBV-associated tumors; cited from earlier work.
The test system of test [6] is P16 transcription from a methylation-silenced promoter. The settings on record: prostate cancer cells that grow in nude mice; cited from earlier work.

`Nc1ncn([C@@H]2O[C@H](CO)[C@@H](O)[C@H]2O)c(=O)n1` [5-Azacytidine]: the “Increase of ex vivo HIV-specific cytolysis of AT-2-HIV-pulsed DCs by splenocytes vs untreated immunized animals” value in the test on AT-2-HIV-pulsed DCs [1] is > 2 fold. Besides, in the test with AT-2-HIV-pulsed DCs [2], the “Increase of in vivo HIV-specific cytolysis of AT-2-HIV-pulsed DCs vs untreated immunized animals” value was > 3 fold. For the same compound, the “Increase of ex vivo hCgA-specific cytolysis of hCgA-pulsed DCs by splenocytes vs untreated immunized animals” value with hCgA-pulsed DCs [3] is listed as > 2 fold. Moreover, in the test with hCgA-pulsed DCs [4], the “Increase of in vivo hCgA-specific cytolysis of hCgA-pulsed DCs vs untreated immunized animals” value is on record as > 3 fold. For the same compound, the “Clinical activity as single agent” value in test [5] is listed as “limited activity”. Besides, in the test with solid tumors, the “Clinical results of single agent in solid tumors” value was “uniformly disappointing”. Further, the “CpG methylation of latent EBV promoters in tumor tissues” value in the test on latent EBV promoters is on record as “reversed the dense CpG methylation”.
Take `CCN(CC)CCNC(=O)c1ccc(N)cc1` [procanaimide]: the “P16 transcription from a methylation-silenced promoter” value in test [6] is “reactivate the P16 transcription”.
